Experimental data: US20220142159A1, “A METHOD AND COMPOSITION FOR INSECT REPELLENCY USING AVERSIVE AGENT” (UPL LTD, priority 2019, published 2022)

What was measured:
Nilgai, deer = experiment: Observed repellence of vermin mammal species; assay type: in vivo; conditions: because of its bitterness
average person = conditions: cited from earlier work
[1] = in vivo; cited from earlier work

## CC[N+](CC)(CC(=O)Nc1c(C)cccc1C)Cc1ccccc1.O=C([O-])c1ccccc1 [Denatonium benzoate, phenylmethyl-[2-[(2,6-dimethylphenyl)amino]-2-oxoethyl]-diethylammonium benzoate]
Nilgai, deer
  repellence of vermin mammals: effectively repelled
Average person; level of recognised bitter taste
  generally recognized bitter taste: 50 ppb
Average person; taste detection level
  can be detected by the average person: 10 ppb
[1]
  human safety in clinical trials: extremely human safe
